Reference: patent US6482947B1, “Substituted (hetero) aryl compounds, process for their preparation, agents containing them and their use as safeners” (priority 1992, dated 2002)

How the values were obtained:
corn (Zea mays) [1] = test: Safener action on corn, post-emergence test, visual damage assessment; type: in vivo; conditions: no safener, 4-leaf stage, assessment after 4 weeks; for Damage [%] in corn varieties: Dea: variety Dea; for Damage [%] in corn varieties: Felix: variety Felix; for Damage [%] in corn varieties: Mutin: variety Mutin
Description: Corn plants, weed and weed grasses were raised to the 4- to 5-leaf stage in plastic pots outside or in the greenhouse and treated successively with herbicides and compounds of the formula I according to the invention using the post-emergence method. […] The assessment was made in percent compared with untreated controls.

corn (Zea mays) [2] = test: as above; type: in vivo; conditions: herbicide 75 g of a.i./ha, no safener; 3-leaf stage, assessment after 3 weeks
[3] = test system: Oryza sativa (transplanted); test: Safener action on transplanted rice, application by watering, visual damage assessment; type: in vivo; conditions: herbicide 450 g of a.i./ha, no safener, 3 days after transplanting, assessed 4 weeks after application
Description: Rice was sown in sandy soil in pots in a greenhouse and raised to a growth height of 24-25 cm. The rice was then transplanted into a water-covered soil and, 3 days after transplanting, treated with a herbicide or a herbicide/safener combination by watering. 4 weeks after application, plant damage was assessed visually compared with untreated controls (results see Table 9).

[4] = test system: Triticum aestivum (wheat); test: Safener action on wheat, post-emergence greenhouse test, visual damage assessment; type: in vivo; conditions: no safener, 4-leaf stage, assessment after 4 weeks
Description: (§1) Seeds of wheat and barley were placed in sandy loam soil in plastic pots, raised to the 3- to 4-leaf stage in a greenhouse and then treated successively with the compounds according to the invention and the herbicides using the post-emergence method. The herbicides and the compounds of the formula I were applied in the form of aqueous suspensions or emulsions at an application rate of 300 l/ha (converted). 3-4 weeks after the treatment, the plants were assessed visually for damage of any type caused by the herbicides applied, in particular the extent of lasting growth inhibition being taken into account. The assessment was made in percentages compared with untreated controls.
(§2) Test conditions: Application at the 4-leaf stage; assessment after 4 weeks; 4 replications

[5] = test system: Triticum durum (hard wheat); test: Safener action on hard wheat, post-emergence greenhouse test, visual damage assessment; type: in vivo; conditions: no safener, 4-leaf stage, assessment after 4 weeks
Description: as §1, §2

Oryza sativa (rice) = test: Safener action on rice (flooded pots), damage assessment; type: in vivo; conditions: herbicide 300 g of a.i./ha, no safener; 3-leaf stage, assessment after 3 weeks
Description: Rice was sown in plastic pots and raised in a greenhouse under optimum growth conditions. After emergence, the pots were filled with water to 2 cm from the top, and this flooding level was maintained throughout the experiment. At the 3- to 4-leaf stage, the plants were then treated with the herbicides and the compounds of the formula I. 3 weeks after treatment, the plants were assessed for damage of any type caused by the herbicides, in particular the extent of lasting growth inhibition and thinning being considered.

Hordeum vulgare (barley) = test: Safener action on barley, post-emergence greenhouse test, visual damage assessment; conditions: no safener
Description: as §1, §2
Test conditions: Application at the 3-leaf stage;
assessment after 2-3 weeks; 4 replications

COc1cc(OC)nc(NC(=O)NS(=O)(=O)c2ncccc2N(C)S(C)(=O)=O)n1 [H8, 3-(4,6-dimethoxypyrimidin-2-yl)-1-[3(-N-methyl-N-methylsulfonylamino)-2-pyridylsulfonyl]urea]
Damage [%] in corn varieties: Dea (corn (Zea mays) [1]; herbicide 25 g a.i./ha): 0%
Damage [%] in corn varieties: Dea (corn (Zea mays) [1]; herbicide 50 g a.i./ha): 0%
Damage [%] in corn varieties: Dea (corn (Zea mays) [1]; herbicide 100 g a.i./ha): 10%
Damage [%] in corn varieties: Dea (corn (Zea mays) [1]; herbicide 200 g a.i./ha): 35%
Damage [%] in corn varieties: Felix (corn (Zea mays) [1]; herbicide 25 g a.i./ha): 25%
Damage [%] in corn varieties: Felix (corn (Zea mays) [1]; herbicide 50 g a.i./ha): 55%
Damage [%] in corn varieties: Felix (corn (Zea mays) [1]; herbicide 100 g a.i./ha): 65%
Damage [%] in corn varieties: Felix (corn (Zea mays) [1]; herbicide 200 g a.i./ha): 70%
Damage [%] in corn varieties: Mutin (corn (Zea mays) [1]; herbicide 25 g a.i./ha): 15%
Damage [%] in corn varieties: Mutin (corn (Zea mays) [1]; herbicide 50 g a.i./ha): 30%
Damage [%] in corn varieties: Mutin (corn (Zea mays) [1]; herbicide 100 g a.i./ha): 60%
Damage [%] in corn varieties: Mutin (corn (Zea mays) [1]; herbicide 200 g a.i./ha): 65%
Damage in corn [%] Felix variety (corn (Zea mays) [2]): 75%

COP(=S)(OC)SCC(=O)N(c1ccc(Cl)cc1)C(C)C [H9, anilofos]
Damage [%] ORSA-T [3]: 50%

CCOC(=O)[C@@H](C)Oc1ccc(Oc2nc3ccc(Cl)cc3o2)cc1 [H1, fenoxaprop-P-ethyl]
Damage [%] TA ([4]; herbicide 100 g of a.i./ha): 10%
Damage [%] TA ([4]; herbicide 200 g of a.i./ha): 30%
Damage [%] TA ([4]; herbicide 400 g of a.i./ha): 40%
Damage [%] TD ([5]; herbicide 100 g of a.i./ha): 95%
Damage [%] TD ([5]; herbicide 200 g of a.i./ha): 95%
Damage [%] TD ([5]; herbicide 400 g of a.i./ha): 98%
Damage [%] ORSA (Oryza sativa (rice)): 80%
Damage [%] HV (Hordeum vulgare (barley); herbicide 100 g of a.i./ha, 4-leaf stage, assessment after 4 weeks): 80%
Damage [%] HV (Hordeum vulgare (barley); herbicide 200 g of a.i./ha, 3-leaf stage, assessment after 2-3 weeks): 85%
Damage [%] HV (Hordeum vulgare (barley); herbicide 200 g of a.i./ha, 4-leaf stage, assessment after 4 weeks): 90%
Damage [%] HV (Hordeum vulgare (barley); herbicide 400 g of a.i./ha, 4-leaf stage, assessment after 4 weeks): 98%

COC(=O)c1sccc1NC(=O)Nc1nc(C)nc(OC)n1 [H7, 1-(2-methoxycarbonylthiophen-3-yl)-3-(4-methoxy-6-methyl-1,3,5-triazin-2-yl)urea]
Damage [%] in corn varieties: Felix (corn (Zea mays) [1]; herbicide 8 g a.i./ha): 0%
Damage [%] in corn varieties: Felix (corn (Zea mays) [1]; herbicide 15 g a.i./ha): 15%
Damage [%] in corn varieties: Felix (corn (Zea mays) [1]; herbicide 30 g a.i./ha): 40%
Damage [%] in corn varieties: Felix (corn (Zea mays) [1]; herbicide 60 g a.i./ha): 75%
Damage [%] in corn varieties: Mutin (corn (Zea mays) [1]; herbicide 8 g a.i./ha): 5%
Damage [%] in corn varieties: Mutin (corn (Zea mays) [1]; herbicide 15 g a.i./ha): 10%
Damage [%] in corn varieties: Mutin (corn (Zea mays) [1]; herbicide 30 g a.i./ha): 30%
Damage [%] in corn varieties: Mutin (corn (Zea mays) [1]; herbicide 60 g a.i./ha): 70%

COc1cc(OC)nc(Oc2cccnc2C(=O)OCc2ccccc2)n1 [H4, benzyl 3-(4,6-dimethoxypyrimidin-2-yloxy)pyridine-2-carboxylate]
Damage to corn [%] Alois variety (corn (Zea mays) [1]; herbicide 38 g of a.i./ha): 20%
Damage to corn [%] Felix variety (corn (Zea mays) [1]; herbicide 38 g of a.i./ha): 0%
Damage to corn [%] Alois variety (corn (Zea mays) [1]; herbicide 75 g of a.i./ha): 40%
Damage to corn [%] Felix variety (corn (Zea mays) [1]; herbicide 75 g of a.i./ha): 30%
Damage to corn [%] Alois variety (corn (Zea mays) [1]; herbicide 150 g of a.i./ha): 55%
Damage to corn [%] Felix variety (corn (Zea mays) [1]; herbicide 150 g of a.i./ha): 50%
Damage to corn [%] Alois variety (corn (Zea mays) [1]; herbicide 300 g of a.i./ha): 60%
Damage to corn [%] Felix variety (corn (Zea mays) [1]; herbicide 300 g of a.i./ha): 60%

COC(=O)c1ccc(I)cc1S(=O)(=O)NC(=O)Nc1nc(C)nc(OC)n1.[Na] [H3, methyl 4-iodo-2-[3-(4-methoxy-6-methyl-1,3,5-triazin-2-yl)ureidosulfonyl]benzoate, sodium salt]
Damage [%] TA ([4]; herbicide 12 g of a.i./ha): 15%
Damage [%] TA ([4]; herbicide 25 g of a.i./ha): 80%
Damage [%] TA ([4]; herbicide 50 g of a.i./ha): 70%

COC(=O)C(C)Oc1ccc(Oc2ccc(Cl)cc2Cl)cc1 (stereo not shown) [H2, diclofop-methyl]
Damage [%] HV (Hordeum vulgare (barley); herbicide 900 g of a.i./ha, 4-leaf stage, assessment after 4 weeks): 10%
Damage [%] HV (Hordeum vulgare (barley); herbicide 1800 g of a.i./ha, 4-leaf stage, assessment after 4 weeks): 40%
